We go through 23 compounds from ChEMBL document CHEMBL4699652, “Proline Hinged Amphipathic α-Helical Peptide Sensitizes Gram-Negative Bacteria to Various Gram-Positive Antibiotics” (J Med Chem, 2020).

Data set [1] has as its system Cell membrane. Kind of data set: Induction of outer membrane re-arragenemnts in Escherichia coli D21f2 incubated for 4 mins by NPN uptake assay. Format: subcellular.
Data set [2] concerns Cell membrane. Nature of the data set: Induction of outer membrane permeability in Escherichia coli assessed as periplasmic-beta-lactamase release at 5 uM using CENTA. It is filed as subcellular.
Data set [3] has as its system Cell membrane. Nature of the data set: Induction of inner membrane permeability in Escherichia coli assessed as cytoplasmic beta-galactosidase release at 5 uM using ONPG.
The test system of data set [4] is Cell membrane. Kind of data set: Induction of outer membrane re-arragenemnts in Escherichia coli ATCC 25922 incubated for 4 mins by NPN uptake assay. It is filed as subcellular.
Data set [5] concerns Escherichia coli. Nature of the data set: Induction of cell killing in Escherichia coli assessed as time needed for bacterial destruction at 128 ug/ml. Format: functional. The note with it: dose 128 µg/ml.
Data set [6] concerns Cell membrane. Nature of the data set: Induction of inner membrane permeability in Escherichia coli at 5 uM incubated for 1 hr by SYTOX Green-staining based flow cytometry analysis. It is filed as subcellular.
In data set [7] the test system is Staphylococcus aureus. Nature of the data set: Antimicrobial activity against Staphylococcus aureus ATCC 29213 assessed as inhibition of bacterial growth incubated for 18 hrs by CLSI based method. It is filed as functional.
Data set [8] has as its system Escherichia coli. Kind of data set: Binding affinity to inner membrane using POPE/POPG (7/3) by SPR assay.
Data set [9] relates to Erythrocyte. Kind of data set: Hemolytic activity in human red blood cells assessed as induction of hemoglobin release incubated for 4 hrs by microplate reader based assay. It is filed as cell-based.
Data set [10] has as its system Escherichia coli. Nature of the data set: Antimicrobial activity against Escherichia coli ATCC 25922 assessed as inhibition of bacterial growth incubated for 18 hrs by CLSI based method. It is filed as functional.
The subject of data set [11] is Escherichia coli. Nature of the data set: Binding affinity to cell membrane using POPC/cholesterol (8/2) by SPR assay. For orientation: In SPR one partner is held on a chip, and binding of the other changes the refractive index at the surface.
Data set [12] has as its system Escherichia coli. Nature of the data set: Binding affinity to outer membrane in POPE/POPG lipid layers containing LPS by SPR assay.
The nature of data set [13]: Induction of cell membrane permeability in POPE/POPG assessed as calcein leakage at 2 to 8 uM. Particulars: dose microM 2-8.
Data set [14] deals with Escherichia coli. Kind of data set: Induction of cell lysis in Escherichia coli at 5 uM by transmission electron microscopy. It is filed as functional, organism-based.
Data set [15] has as its system Cell membrane. Kind of data set: Induction of membrane permeability in Escherichia coli assessed as increase in fine surface roughness at 25 uM by atomic force microscopy. It is filed as subcellular.
Data set [16] deals with Cell membrane. Kind of data set: Induction of cell membrane fluidity changes in Escherichia coli ATCC 25922 by Laurdan-dye based fluorescence assay. Format: subcellular.
Data set [17] relates to Escherichia coli. Kind of data set: Antimicrobial activity against Escherichia coli ATCC 25922 assessed as reduction in cell viability at 10 to 10000 uM by propidium iodide staining based assay. It is filed as functional, organism-based. Particulars: dose microM 10-10000.

The source made the active and inactive calls. The rule behind the calls is not given here.

For `CC[C@H](C)[C@H](NC(=O)CN)C(=O)NCC(=O)N[C@@H](C)C(=O)N[C@H](C(=O)N[C@@H](CC(C)C)C(=O)N[C@@H](CCCCN)C(=O)N[C@H](C(=O)N[C@@H](CC(C)C)C(=O)N[C@H](C(=O)N[C@H](C(=O)NCC(=O)N[C@@H](CC(C)C)C(=O)N1CCC[C@H]1C(=O)N[C@@H](C)C(=O)N[C@@H](CC(C)C)C(=O)N[C@H](C(=O)N[C@@H](CO)C(=O)N[C@@H](Cc1c[nH]c2ccccc12)C(=O)N[C@H](C(=O)N[C@@H](CCCCN)C(=O)N[C@@H](CCCNC(=N)N)C(=O)N[C@@H](CCCCN)C(=O)N[C@@H](CCCNC(=N)N)C(=O)N[C@@H](CCC(N)=O)C(=O)N[C@@H](CCC(N)=O)C(N)=O)[C@@H](C)CC)[C@@H](C)CC)[C@@H](C)O)[C@@H](C)O)C(C)C)C(C)C` [MELITTIN], the result in data set [1], in [2], in [3] and in data set [6] was inactive. For the same compound, the result in data set [4] was Active. For the same compound, the Time in data set [5] is 4 h.

The MIC is the lowest concentration that inhibits growth of the organism. Turning to Ac-LKKLLKLLKKLPKL-NH2, the outcome in [1], in data set [2], in data set [11], in data set [3], in data set [12] and in [13] was inactive. Further, in [6], the outcome was inactive. Besides, the MIC amounted to 10 µM in data set [7] and 5 µM in data set [10]. For the same compound, the outcome in [8], in data set [4] and in data set [14] was Active. Further, the HC10 in data set [9] was found to be 40 µM.

As to Ac-LKKLPKLSKKLLKL-NH2, the MIC is 10 µM in data set [7] and 2.5 µM in data set [10]. Besides, in data set [9], the HC10 turned out to be 80 µM.

For the compound H-KLAKLAKKPLKLAK-OH, the result in [1], in data set [2], in data set [3], in [15] and in data set [6] was inactive. Moreover, the result in [4] was Active.

Turning to Ac-LKKLLKLLKPLLKL-NH2, the MIC came to 2.5 µM in data set [7] and 5 µM in [10]. The HC10 in [9] was 5 µM.

Take Ac-KLLKLLPKLLKLLK-NH2: the figures for the MIC in data set [7] and in data set [10] were 5 µM and 10 µM, respectively. Also, the HC10 in data set [9] was determined as 5 µM.

For Ac-LKKPLKLGKKLLKL-NH2, the MIC in data set [7] stood at 40 µM; in [10] it was 5 µM. The HC10 in data set [9] is 160 µM.

Turning to Ac-LKKLLKLLKKLLKL-NH2, the MIC in [7] and in data set [10] was 10 µM throughout. The HC10 in data set [9] is 5 µM.

Regarding Ac-KLLKLLKKLLKLLK-NH2, the results for the MIC in data set [7] and in data set [10] were 10 µM and 20 µM, respectively. Besides, in data set [9], the HC10 turned out to be 0.625 µM.

Consider Ac-LKKLLPLLKKLLKL-NH2, for which the MIC in [7] amounted to 2.5 µM; in data set [10] it was 10 µM. In addition, the HC10 in [9] amounted to 1.25 µM.

Take Ac-KLLKLLKKLLKPLK-NH2: the MIC came to 10 µM in data set [7] and 20 µM in data set [10]. Moreover, the HC10 in data set [9] was determined as 40 µM.

Consider Ac-KLLKLLKKLPKLLK-NH2, for which the MIC in data set [7] and in [10] was 40 µM throughout. Besides, the HC10 in data set [9] was 80 µM.

Ac-LKKLLKPLKKLLKL-NH2: the MIC in data set [7] and in data set [10] was 20 µM throughout. For the same compound, in [9], the HC10 came to 160 µM.

On to Ac-LKKLLKLLPKLLKL-NH2, for which the result in data set [1], in [2], in [3], in data set [13] and in data set [6] was inactive. Also, the MIC in [7] turned out to be 2.5 µM; in data set [10], 5 µM. The HC10 in data set [9] stood at 5 µM. The outcome in data set [4] and in data set [14] was Active.

Regarding COLISTIN, the result in data set [1], in [2], in [3] and in data set [6] was inactive. Moreover, the outcome in [16], in [17] and in data set [4] was Active.

Regarding Ac-KLPKLLKKLLKLLK-NH2, the MIC in [7] and in data set [10] was 10 µM in each case. In addition, the HC10 in data set [9] amounted to 10 µM.

With H-LKKLLKLLKKPLKL-NH2, the outcome in data set [1], in data set [2], in [3] and in data set [6] was inactive. For the same compound, the MIC is 40 µM in data set [7] and 20 µM in data set [10]. The HC10 in [9] was found to be 320 µM. The outcome in [4] was Active.

On to Ac-KLLKLLKPLLKLLK-NH2, for which the MIC is 2.5 µM in data set [7] and 10 µM in data set [10]. Moreover, the HC10 in [9] came to 2.5 µM.

As to Ac-KLLKLPKKLLKLLK-NH2, the result in data set [1], in data set [2], in data set [3] and in [6] was inactive. The MIC in data set [7] is > 80 µM; in data set [10] it was ≥ 80 µM. The HC10 in [9] was 640 µM. In [4], the outcome was Active.

Turning to Ac-KLLKPLKKLLKLLK-NH2, the MIC in [7] and in data set [10] was 20 µM in each case. In addition, the HC10 in data set [9] came out at 80 µM.

For the compound Ac-KPLKLLKKLLKLLK-NH2, the MIC in [7] and in data set [10] was 5 µM throughout. Also, the HC10 in data set [9] turned out to be 5 µM.

Take Ac-KLLKLLKKLLKLPK-NH2: the MIC in data set [7] and in data set [10] was 10 µM throughout. In data set [9], the HC10 is 40 µM.

For the compound Ac-LKKLLKLPKKLLKL-NH2, the result in [1], in data set [2], in data set [3] and in data set [6] was inactive. Besides, the results for the MIC in [7] and in data set [10] were > 80 µM and 40 µM, respectively. In data set [9], the HC10 was 640 µM. In data set [4], the outcome was Active.
